Measurements from patent publication US4914086A, “Method for treating African human and veterinary trypanosomiases” (priority 1987, dated 1990).
Entries after “also recorded” stand apart in the source; their conditions may differ.

Key:
T. b. brucei TREU 667 [1] = test: CNS model, T. b. brucei TREU 667 infection in mice (Table 4); assay type: in vivo, Trypanosoma brucei brucei (in Swiss-Webster mice); details: for efficacy in CNS model in words: 100 mg/kg × 6 doses/days
Excerpt: (§1) T. b. brucei EATRO 110 isolate was maintained as described (Bacchi, C. J., H. C. Nathan, S. H. Hutner, P. P. McCann and A. Sjoerdsma; Polyamine metabolism: a potential chemotherapeutic target in trypanosomes. Science 210: 332-334, 1980). It produces an acute, rapidly fatal parasitemia which is lethal to mice 3-5 days after inoculation. Two T. B. brucei strains, TREU 667 and LUMP 1001 developed by Jennings and coworkers (Jennings, F. W., D. D. Whitelaw and G. M. Urquhart; The relationship between duration of infection with Trypanosoma brucei in mice and the efficacy of chemotherapy. Parasitology 75: 143-153, 1977/Jennings, F. W. and G. D. Gray; Relapsed parasitemia following chemotherapy of chronic T. brucei infections in mice and its relation to cerebral trypanosomes; Contr. Microbiol. Immunol. 7 147-154, 1983) were used as CNS models. Both produce infections which are refractory to Berenil® (diminazene aceturate) and develop within 21 days after inoculation. They are not usually fatal until >40 days after inoculation. LUMP 1001 causes a more virulent CNS infection than TREU 667, and is regarded as more difficult to cure (Jennings, F. W. and G. D. Gray. Relapsed parasitemia following chemotherapy of chronic T. brucei infections in mice and its relation to cerebral trypanosomes. Contr. Microbiol. Immunol. 7 147-154, 1983).
The models for […] nervous system infections used TREU 667 and LUMP 1001 strains which were stored frozen and passaged once in rats before infection of mice. Maintenance and use of these screens were as described (Clarkson, A. B. Jr., C. J. Bacchi, G. H. Mellon, H. C. Nathan, P. P. McCann and A. Sjoerdsma. Efficacy of DFMO+blemoycin in a mouse model of central nervous system African trypanosomiasis. Proc. Natl. Acad. Sci. USA. 80: 5729-5733, 1983/Clarkson, A. B. Jr., E. J. Biene, C. J. Bacchi, P. P. McCann, S. H. Hutner and A. Sjoerdsma. New drug combination for experimental late stage African trypanosomiasis: DFMO with suramin. Am. J. Trop. Med. Hyg. 33: 1073-1077, 1984/Dube, D. K., G. Mpimbaza, A. C. Allison, E. Lederer and L. Rovis. Antitrypanosomal activity of sinefungin, Am. J. Trop. Med. Hyg. 32: 31-33, 1983/Fish, W. R., J. J. Marr, R. L. Berens, D. L. Looker, D. J. Nelson, S. LaFon and A. E. Balber. Inosine analogs as chemotherapeutic agents for African trypanosomes: metabolism in trypanosomes and efficacy in tissue culture. Anti-microb. Ag. Chemother. 27: 33-36, 1985/Clazer, R. I., and L. S. Lloyd. Effects of 8-azaadenosine and formycin on cell lethality and the synthesis and methylation of nucleic acids in human colon carcinoma cells in culture. Biochem. Pharmacol. 31: 3207-3214, 1982/Bacchi, C. J., H. C. Nathan, A. B. Clarkson, Jr., E. J. Bienen, A. J. Bitonti, P. P. McCann and A. Sjoerdsma. Activity of the ornithine decarboxylase inhibitors DL-α-difluoromethylornithine and monofluormethyldehydroornithine methylester alone and in combination with suramin against Trypanosoma brucei brucei central nervous system models, Am. J. Trop. Med. Hyg. (in press)). Briefly, groups of 100-120 mice were infected and the infections allowed to develop until day 21, when the animals were separated into groups of 10 and therapy commenced. Controls were treated with Berenil (40 mg/kg) on day 21. These always relapsed 40-70 days after treatment. Parasitemia was followed by examining tail vein blood smears once weekly. Animals which had relapsed were removed from cages. TREU 667 infections were followed >225 days after inoculation and LUMP 1001 were followed >280 days, as determined by the relapse pattern in previous work (Bacchi, C. J., H. C. Nathan, A. B. Clarkson, Jr., E. J. Bienen, A. J. Bitonti, P. P. McCann and A. Sjoerdsma. Activity of the ornithine decarboxylase inhibitors DL-α-difluoromethylornithine and monofluormethyldehydroornithine methylester alone and in combination with suramin against Trypanosoma brucei brucei central nervous system models. Am. J. Trop. Med. Hyg. (in press)). […]

T. b. brucei TREU 667 [2] = details: infection developed within 21 days; cited from earlier work
T. b. brucei LUMP 1001 [3] = details: infection developed within 21 days; cited from earlier work
T. b. brucei LUMP 1001 [4] = test: CNS model, T. b. brucei LUMP 1001 infection in mice (Table 5); assay type: in vivo, Trypanosoma brucei brucei (in Swiss-Webster mice); details: control: Berenil 40 mg/kg on day 21
Excerpt: as §1
The models for […] nervous system infections used TREU 667 and LUMP 1001 strains which were stored frozen and passaged once in rats before infection of mice. Maintenance and use of these screens were as described (Clarkson, A. B. Jr., C. J. Bacchi, G. H. Mellon, H. C. Nathan, P. P. McCann and A. Sjoerdsma. Efficacy of DFMO+blemoycin in a mouse model of central nervous system African trypanosomiasis. Proc. Natl. Acad. Sci. USA. 80: 5729-5733, 1983/Clarkson, A. B. Jr., E. J. Biene, C. J. Bacchi, P. P. McCann, S. H. Hutner and A. Sjoerdsma. New drug combination for experimental late stage African trypanosomiasis: DFMO with suramin. Am. J. Trop. Med. Hyg. 33: 1073-1077, 1984/Dube, D. K., G. Mpimbaza, A. C. Allison, E. Lederer and L. Rovis. Antitrypanosomal activity of sinefungin, Am. J. Trop. Med. Hyg. 32: 31-33, 1983/Fish, W. R., J. J. Marr, R. L. Berens, D. L. Looker, D. J. Nelson, S. LaFon and A. E. Balber. Inosine analogs as chemotherapeutic agents for African trypanosomes: metabolism in trypanosomes and efficacy in tissue culture. Anti-microb. Ag. Chemother. 27: 33-36, 1985/Clazer, R. I., and L. S. Lloyd. Effects of 8-azaadenosine and formycin on cell lethality and the synthesis and methylation of nucleic acids in human colon carcinoma cells in culture. Biochem. Pharmacol. 31: 3207-3214, 1982/Bacchi, C. J., H. C. Nathan, A. B. Clarkson, Jr., E. J. Bienen, A. J. Bitonti, P. P. McCann and A. Sjoerdsma. Activity of the ornithine decarboxylase inhibitors DL-α-difluoromethylornithine and monofluormethyldehydroornithine methylester alone and in combination with suramin against Trypanosoma brucei brucei central nervous system models, Am. J. Trop. Med. Hyg. (in press)). Briefly, groups of 100-120 mice were infected and the infections allowed to develop until day 21, when the animals were separated into groups of 10 and therapy commenced. Controls were treated with Berenil (40 mg/kg) on day 21. […] Parasitemia was followed by examining tail vein blood smears once weekly. Animals which had relapsed were removed from cages.

T. cruzi = details: previous studies; cited from earlier work
[5] = test system: Trypanosoma brucei rhodesiense; details: bone marrow tissue culture system; cited from earlier work
T. brucei subsp. = details: cited from earlier work
Leishmania spp = details: previous studies; cited from earlier work
Pneumocystis Carinii = details: tissue culture; cited from earlier work
T. b. brucei EATRO 110 = test: Drug screen, acute EATRO 110 mouse infection (Tables 1, 3); assay type: in vivo, Trypanosoma brucei brucei (in Swiss-Webster mice); details: for activity in the acute (short term) EATRO 110 model, in words: text summary
Excerpt: as §1
(§2) Swiss-Webster (25-30 g) mice were used throughout. In the EATRO 110 model, groups of 100 mice were infected (10^5 trypanosomes/mouse) and the infection was allowed to develop 24 hours before commencing therapy. Animals were divided into groups of 5 before treatment. Cured animals survived >30 days beyond deaths of controls. All compounds were administered by i.p. injection.
Other methods as in Table 1.

[6] = test system: Trypanosoma brucei gambiense; details: bone marrow tissue culture system; cited from earlier work
mammalian cells = details: cited from earlier work
in vivo = test: in vivo
Experimental: as §2

African trypanosomes = details: previous studies; cited from earlier work
mouse L cells = details: cited from earlier work
human macrophages = details: cited from earlier work
[7] = test system: human colon carcinoma cells; details: cited from earlier work
[8] = Table 1, 2.5 mg/kg i.p. (9-DINO, sinefungin once daily for 3 days)
[9] = Table 1, 5 mg/kg i.p. (9-DINO, sinefungin once daily for 3 days)
[10] = Table 1, 10 mg/kg i.p. (9-DINO, sinefungin once daily for 3 days)
[11] = Table 1, 25 mg/kg i.p. (9-DINO, sinefungin once daily for 3 days)
[12] = Table 1, 50 mg/kg i.p. (9-DINO, sinefungin once daily for 3 days)
[13] = Table 1, 100 mg/kg i.p. (9-DINO, sinefungin once daily for 3 days)
[14] = Table 3, 0.05 mg/kg i.p. once daily for 3 days
[15] = Table 3, 0.1 mg/kg i.p. once daily for 3 days
[16] = Table 3, 0.25 mg/kg i.p. once daily for 3 days
[17] = Table 3, 0.5 mg/kg i.p. once daily for 3 days

## N=C(N)c1ccc(N=NNc2ccc(C(=N)N)cc2)cc1 [Berenil, diminazene aceturate, reference compound]
T. b. brucei TREU 667 [1]; control: Berenil 40 mg/kg on day 21
  relapse after treatment: 40 to 70 days
T. b. brucei TREU 667 [2]
  response of infection in words: refractory
T. b. brucei LUMP 1001 [3]
  response of infection in words: refractory
T. b. brucei LUMP 1001 [4]
  relapse after treatment: 40 to 70 days

## O=c1[nH]cnc2c([C@@H]3O[C@H](CO)[C@@H](O)[C@H]3O)n[nH]c12 [Formycin B, 7-hydroxypyrazolo (4,3-d) pyrimidine ribonucleoside]
T. b. brucei TREU 667 [1]; 5 mg/kg i.p., 7 days
  # Cured/Total: 0/8
  % Cured: 0%
  Avg. Day of Relapse (Range): 42 (37-49) Day
T. b. brucei TREU 667 [1]; 10 mg/kg i.p., 7 days
  # Cured/Total: 0/9
  % Cured: 0%
  Avg. Day of Relapse (Range): 40 (37-41) Day
T. b. brucei TREU 667 [1]; 25 mg/kg i.p., 7 days
  # Cured/Total: 0/10
  % Cured: 0%
  Avg. Day of Relapse (Range): 40 (37-68) Day
T. b. brucei TREU 667 [1]; 50 mg/kg i.p., 6 days
  # Cured/Total: 0/10
  % Cured: 0%
  Avg. Day of Relapse (Range): 34 (23-35) Day
T. b. brucei TREU 667 [1]; 100 mg/kg i.p., 6 days
  # Cured/Total: 0/9
  % Cured: 0%
  Avg. Day of Relapse (Range): 35 days
T. b. brucei TREU 667 [1]
  efficacy in CNS model in words: not curative
T. b. brucei TREU 667 [1]; listed as formycin B
  efficacy in CNS model in words: failed to protect
T. cruzi
  activity in words: active
[5]
  activity in words: active at very low concentrations; also recorded: somewhat more efficacious than 9-deazainosine
T. brucei subsp.
  metabolism in words: can be aminated by T. brucei subsp. and converted to analogs of ATP
Leishmania spp
  activity in words: active
Pneumocystis Carinii
  activity in words: active
T. b. brucei EATRO 110; EATRO 110, text
  curative / active dose range: 5 to 100 mg/kg
T. b. brucei EATRO 110; [8]
  # Cured/Total: 5/5
  % Cured: 100%
T. b. brucei EATRO 110; [9]
  # Cured/Total: 4/5
  % Cured: 80%
T. b. brucei EATRO 110; [10]
  # Cured/Total: 5/5
  % Cured: 100%
T. b. brucei EATRO 110; [11]
  # Cured/Total: 9/10
  % Cured: 90%
T. b. brucei EATRO 110; [12]
  # Cured/Total: 5/5
  % Cured: 100%
T. b. brucei EATRO 110; [13]
  # Cured/Total: 4/5
  % Cured: 80%
T. b. brucei EATRO 110; [14]
  # Cured/Total: 0/5
  % Cured: 0%
T. b. brucei EATRO 110; [15]
  # Cured/Total: 0/5
  % Cured: 0%
T. b. brucei EATRO 110; [16]
  # Cured/Total: 1/10
  % Cured: 10%
T. b. brucei EATRO 110; [17]
  # Cured/Total: 3/5
  % Cured: 60%
T. b. brucei EATRO 110; comparison of activity ranges
  relative activity of formycin B versus 9-DINO: > 10 X
T. b. brucei EATRO 110
  activity in the acute (short term) EATRO 110 model, in words: most active; also recorded: extremely active
T. b. brucei EATRO 110; listed as formycin B
  activity in the acute (short term) EATRO 110 model, in words: greatest activity; also recorded: more active than 9-DINO
[6]
  activity in words: active at very low concentrations; also recorded: somewhat more efficacious than 9-deazainosine
Mammalian cells
  cleavage into ribose and purine analog moieties: cannot be cleaved into ribose and purine analog moieties
  metabolism in words: metabolized by mammalian cells to its aminated analog formycin A
In vivo; 100 mg/kg
  toxicity in words: toxicity was observed; also recorded: loss of hair
In vivo; mouse, in vivo, ip, 100 mg/kg
  mortality: 20%
In vivo; short term model, Table 1
  dose at which toxicity appeared: 100 mg/kg
African trypanosomes
  activity in words: active
Mouse L cells
  metabolism in words: Mouse L cells can convert formycin B to the analogs of adenine nucleotides and incorporate the ATP analog into RNA
Human macrophages
  conversion to adenine nucleotide analogs / incorporation in words: this occurred in human macrophages

## Nc1ncnc2c([C@@H]3O[C@H](CO)[C@@H](O)[C@H]3O)n[nH]c12 [formycin A]
[7]
  incorporation into DNA in words: can be incorporated into DNA
